One compound from patent publication US7074807B2, “Compositions and methods for inducing cell death” (Georgetown University, priority 1998, dated 2006) can be followed below.

Assay in all cases: Caspase-3 activity assay (DEVD-AFC)
Common to all, as to format: cell-based, human

One assay deals with caspase-3 in DU145 cells. Conditions: 2.5 mM, 2 hr. The protocol: (§1) FIG. 10 illustrates the effect of tempo on caspase-3 activity in prostate cancer cell lines. Cells were treated with 2.5 mM tempo for indicated times in duplicate or triplicate as described in legend to FIG. 2. Representative data from one experiment are shown. Experiments was repeated 2–3 times.
(§2) ApoAlert CPP32 activity/caspase-3 assay kit was used to measure caspase-3 activity in cells according to manufacturer's instructions (Clontech). Briefly, after tempo treatment, cells were washed 3 times with ice-cold PBS and lysed in Clontech cell lysis buffer for 10 min on ice followed by microcentrifugation at 15,000× g for 5 min. Whole cell lysate (50 ug) was incubated for 1 h at 37° C. in caspase-3 reaction mixture containing 10 mM DTT in 2× reaction buffer, 50 uM CPP32 substrate, DEVD-AFC. The amounts of 7-amino-4 trifluoromethyl coumarin (AFC) released were detected by spectrofluorometer (Hitachi F4500) with excitation at 400 nm and emission at 505 nm.

The next assay has as its system caspase-3 in PC3 cells. Conditions: 2.5 mM, 24 hr. On the procedure:
as §1, §2

A further assay relates to caspase-3 in LNCaP cells. Conditions: 2.5 mM, 24 hr. The protocol:
as §1, §2

In the case of `CC1(C)CCCC(C)(C)N1[O]` [tempo, 2,2,6,6-tetramethylpiperidine-N-oxyl], the “level of caspase-3 activity” value is reported as approximately 170% in the assay on caspase-3 in DU145 cells and approximately 200% in the assay on caspase-3 in PC3 cells. The “increase in caspase activity” value in the assay with caspase-3 in LNCaP cells was approximately 12 fold.
